In one experiment the test system is muscles. The conditions noted are these: rats in vivo; cited from earlier work.
The subject of the next experiment is murine myotubes C2C12. To be noted: murine myotubes C2C12 in vitro; cited from earlier work.
The conditions of experiment [1]: young athletes; cited from earlier work.
Experiment [2] has as its system SMA mice (FVB/NRj-SmnΔ7/Δ7 huSMN2+/+ 2 copies). Nature of the experiment: Phenotypic analysis: weight and survival of severe SMA mice under daily gavage. The class given is in vivo, mouse. An excerpt: A severe SMA mouse model was used on an FVB/NRj gene pool, characterized by the invalidation of the exon 7 of the murine gene Smn and expressing 2 copies of the human transgene SMN2 (Smn^Δ7/Δ7; huSMN2^+/+) (Hsieh et al., 2000). The mice resulting from these crossings having the “FVB/NRj-Smn^Δ7/Δ7 huSMN2^+/+ 2 copies” genotype are described as “SMA”. These mice are characterized by progressive growth failure which is observed starting from 4 days post-natal and have a degeneration of about 50% of the motor neurons of the ventral horn of the spinal cord at the end of life, progressive muscular atrophy and an average lifespan of about 12 days (Hsieh et al., 2000). The mice having the “FVB/NRj-Smn^+/Δ7 huSMN2^++ 2 copies” genotype have no particular phenotype and are used as so-called “control” mice. The mice were treated via daily gavage of a dose of 50 mg/kg, either with the molecule BIO101 complexed to a vehicle (cyclodextrin in the present case), or with the vehicle alone (VH). The weight and the survival were analyzed on a daily basis until P11. In the rest of the description, n corresponds to the size of the sample and p corresponds to the “p value” used to quantify the statistical significance of a result.
The same type II murine model was used to characterize the phenotypic effects of the molecule BIO103 in a severe SMA model. The mice were treated via daily gavage of a dose of 50 mg/kg, either with the molecule BIO103 complexed with the vehicle (cyclodextrin in the present case), or with the vehicle alone (VH). The weight and the survival were analyzed on a daily basis until P11.

Experiment [3] deals with muscles Soleus, Plantaris and Tibialis of SMA mice. Nature of the experiment: Histological analysis of muscle cross-sections (Hematoxylin-Eosin): number and cross-section surface of muscle fibers. The experiment is classed as in vivo, mouse. The procedure: At P11, one hour after their last gavage, the treated mice were anaesthetized with pentobarbital 1% at 6 μL/g of mouse then the extensor muscles Soleus, with a mixed typology, extensor Plantaris, with a fast typology, and flexor Tibialis, with a fast typology, were sampled in order to conduct histological or molecular studies. After sampling, the muscles Soleus, Plantaris and Tibialis were included individually in a preservation medium then frozen in cooled isopentane. For each muscle, medial cross-sections 10 μm thick were realized. These sections were stained with Hematoxyline-Eosin, dehydrated and mounted in an inclusion medium. The images of these sections were taken with a microscope (with a magnification ×200). In order to obtain images with an impression of relief, the differential interference contrast technique was used. From these images, the number of muscle fibers of each muscle and the cross-section surface of 20% of these fibers were counted using image processing software (FIG. 2).

As for `CC(C)(O)CC[C@@H](O)[C@](C)(O)[C@H]1CC[C@@]2(O)C3=CC(=O)[C@@H]4C[C@@H](O)[C@@H](O)C[C@]4(C)[C@H]3CC[C@]12C` [20-hydroxyecdysone], the “effects on protein syntheses in muscles” value in the experiment on muscles is “stimulating effects”. The “effects on protein syntheses” value in the experiment with murine myotubes C2C12 is on record as “stimulating effects”. Further, the muscle mass result in experiment [1] is on record as “favors the increase”.
Regarding `CCSCC(=O)[C@H]1CC[C@@]2(O)C3=CC(=O)[C@@H]4C[C@@H](O)[C@@H](O)C[C@]4(C)C3CC[C@]12C` (stereo partly drawn) [BIO103, (2S,3R,5R,10R,13R,14S,17S)-17-(2-ethylsulfanylacetyl)-2,3,14-trihydroxy-10,13-dimethyl-2,3,4,5,9,11,12,15,16,17-decahydro-1H-cyclopenta[a]phenanthren-6-one], in experiment [2] (50 mg/kg daily gavage P0 to P11), the “survival at P11” value amounted to 66.6%. The “loss of weight of the animals” value in experiment [2] (50 mg/kg daily gavage from birth to P11, versus vehicle) is “tends to limit”. Moreover, the “atrophy of the muscle fibers (cross-section surface) in relation to healthy control mice” value in experiment [3] (Plantaris, P11, SMA mice treated P0 to P11 (SMA vehicle 46%)) was 15.3%; in experiment [3] (Soleus, P11, SMA mice treated P0 to P11 (SMA vehicle 50.2%)) it was 37.1%; in experiment [3] (Tibialis, P11, SMA mice treated P0 to P11 (SMA vehicle 56.1%)) it was 22.1%. Further, in experiment [3] (Tibialis, versus SMA vehicle), the “proportion of fibers with cross-section surface greater than 400 μm^2” value is “significant increase”. In addition, in experiment [3] (Tibialis, versus SMA vehicle, p<0.05), the “proportion of small fibers with cross-section surface less than 200 μm^2” value was “decreases significantly”.

The values are drawn from patent US12440500B2, “Phytoecdysones and the derivatives thereof for use in the treatment of neuromuscular diseases” (BIOPHYTIS, priority 2019, dated 2025).
